Results published in patent US20190382432A1 (Synbias Pharma AG, priority 2013, published 2019).
Where a name gives a salt, the structure may show the parent alone. Marks after values point to notes of the source that are not given here.

Experiments:
Assay type in all cases: physicochemical
[1] = Thermostability on storage at 25, 40 and 100 °C per ICH Q1A (R2), HPLC; settings: 25, 40, 100 °C; data not shown
Description: HPLC and GC analyses were performed according to standard protocols.
The testing was performed as described in the ICH guidelines (cf. inter alia ICH Guideline Q1A (R2)).

[2] = Hygroscopic capacity: water content by Karl-Fischer titration after exposure to temperature and relative humidity; settings: 25 or 40 °C, 40-90% rh; data not shown
Description: Coulometric Karl-Fischer titration (KFT; for determining the water content) was performed with an external drying oven (Metrohm 707 KF; operated at 140° C. with N2 purge). The samples were precisely weighed on an analytical balance (10^−5 g).
The testing was performed as described in the ICH guidelines.

[3] = Particle size distribution by laser diffraction analysis (Mastersizer 2000); settings: wet laser diffraction in acetone; listed as Sample 3, hydrochloride
Description: Laser diffraction analysis was performed in form of wet laser diffraction in acetone: 1750 rpm, 3×20 s cycle time, 60 s background time, without sonication, and 5 min stirring time using a Mastersizer 2000 Particle Size Analyzer (Malvern Instruments Ltd., Malvern, UK) according to the manufacturer's instructions.

[4] = Thermostability under stress conditions (storage at 100 °C for one month), HPLC
Description: Sample S was prepared according to the present invention, as described in Example 3 above. Sample M1 was prepared according to Example 1 of WO 2012/163508 A1, as described in Example 7 above. Finally, Sample M2 was prepared according to Example 2 of WO 2012/163508 A1, as described in Example 7 above.
The samples were exposed to a temperature of 100° C. for the time period (in weeks) indicated. The testing was performed as described in the ICH Guideline Q1A (R2) (cf. above). The amount of the degradation product (i.e. doxorubicinone) produced as well as those of various impurities (i.e., doxorubicin and four different impurities of yet unknown identity; all given in % (w/w); “n.d.”=not determined) was determined by HPCL analysis (“LT”=less than).

COc1cccc2c1C(=O)c1c(O)c3c(c(O)c1C2=O)C[C@@](O)(C(=O)CO)C[C@@H]3O[C@H]1C[C@H](N)[C@H](O)[C@H](C)O1 [S, epirubicin hydrochloride]
Thermostability compared with the Example 1 monohydrate (TABLE 5-1), in words [1]: almost identical results
Hygroscopic capacity compared with the Example 1 monohydrate (TABLE 6-1), in words [2]: almost identical results
D(v/0.5), mean diameter based on the volume of the particles [3]: 25.25 μm
Doxorubicin (NMT 1%) ([4]; 0 weeks): 0.29 % (w/w)
Doxorubicinone (Aglycone) (NMT 1%) ([4]; 0 weeks): < 0.05 % (w/w)
Total Impurities (NMT 2%) ([4]; 0 weeks): 0.30 % (w/w)
Doxorubicin (NMT 1%) ([4]; 1 week, hydrochloride): 0.28 % (w/w)
Doxorubicinone (Aglycone) (NMT 1%) ([4]; 1 week, hydrochloride): 0.39 % (w/w)
Total Impurities (NMT 2%) ([4]; 1 week, hydrochloride): 0.80 % (w/w)
Unknown impurity RRT 1.7 (NMT 0.15%) ([4]; 1 week, hydrochloride): 0.08 % (w/w)
Doxorubicin (NMT 1%) ([4]; 2 weeks): 0.32 % (w/w)
Doxorubicinone (Aglycone) (NMT 1%) ([4]; 2 weeks, hydrochloride): 0.40 % (w/w)
Total Impurities (NMT 2%) ([4]; 2 weeks, hydrochloride): 0.90 % (w/w)
Unknown impurity RRT 1.2 (NMT 0.15%) ([4]; 2 weeks, hydrochloride): 0.07 % (w/w)
Unknown impurity RRT 1.6 (NMT 0.15%) ([4]; 2 weeks, hydrochloride): 0.05 % (w/w)
Unknown impurity RRT 1.7 (NMT 0.15%) ([4]; 2 weeks, hydrochloride): 0.09 % (w/w)
Doxorubicin (NMT 1%) ([4]; 3 weeks, hydrochloride): 0.32 % (w/w)
Doxorubicinone (Aglycone) (NMT 1%) ([4]; 3 weeks, hydrochloride): 0.46 % (w/w)
Total Impurities (NMT 2%) ([4]; 3 weeks, hydrochloride): 1.10 % (w/w)
Unknown impurity RRT 1.2 (NMT 0.15%) ([4]; 3 weeks, hydrochloride): 0.08 % (w/w)
Unknown impurity RRT 1.6 (NMT 0.15%) ([4]; 3 weeks, hydrochloride): 0.12 % (w/w)
Unknown impurity RRT 1.7 (NMT 0.15%) ([4]; 3 weeks, hydrochloride): 0.13 % (w/w)
Doxorubicin (NMT 1%) ([4]; 4 weeks): 0.33 % (w/w)
Doxorubicinone (Aglycone) (NMT 1%) ([4]; 4 weeks, hydrochloride): 0.49 % (w/w)
Total Impurities (NMT 2%) ([4]; 4 weeks, hydrochloride): 1.3* % (w/w)
Total amount of unknown impurities ([4]; 4 weeks, hydrochloride): 0.48 % (w/w)
Unknown impurity RRT 1.1 (NMT 0.15%) ([4]; 4 weeks, hydrochloride): 0.06 % (w/w)
Unknown impurity RRT 1.2 (NMT 0.15%) ([4]; 4 weeks, hydrochloride): 0.11 % (w/w)
Unknown impurity RRT 1.6 (NMT 0.15%) ([4]; 4 weeks, hydrochloride): 0.15 % (w/w)
Unknown impurity RRT 1.7 (NMT 0.15%) ([4]; 4 weeks, hydrochloride): 0.15 % (w/w)
Degradation under stress conditions compared with M1 and M2, in words ([4]; one month): less pronounced degradation
